Calls of active or inactive are those of the source.
Experiments:
[1] = target: T1, Heat shock factor protein 1 (Mus musculus, UniProt P38532); assay: enhancement of HSF1-driven luciferase signal – cell-based, NIH3T3, luminescence, dose retest, confirmation (AID 435004); assay type: functional;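 note: stress induced by proteasome inhibitor MG132 added 30 min after compound; luciferase reporter driven by HSF1 response element in NIH3T3 cells; actives raise luminescence as potentiators of the MG132 stress response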
T1 sequence (P38532 whole entry): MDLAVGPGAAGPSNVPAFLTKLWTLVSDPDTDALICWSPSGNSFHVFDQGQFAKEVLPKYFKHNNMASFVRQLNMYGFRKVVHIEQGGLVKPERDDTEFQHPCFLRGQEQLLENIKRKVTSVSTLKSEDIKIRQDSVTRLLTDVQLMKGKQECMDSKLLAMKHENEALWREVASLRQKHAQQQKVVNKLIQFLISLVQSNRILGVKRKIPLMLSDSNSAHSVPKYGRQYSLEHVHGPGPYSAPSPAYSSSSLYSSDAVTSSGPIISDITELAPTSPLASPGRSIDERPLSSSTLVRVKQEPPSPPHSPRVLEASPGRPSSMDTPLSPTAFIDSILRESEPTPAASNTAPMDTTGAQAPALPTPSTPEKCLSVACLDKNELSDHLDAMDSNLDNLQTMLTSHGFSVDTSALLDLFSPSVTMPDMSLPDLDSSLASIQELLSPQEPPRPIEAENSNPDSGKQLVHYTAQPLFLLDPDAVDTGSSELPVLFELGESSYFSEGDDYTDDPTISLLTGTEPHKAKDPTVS

Cytochrome P450 2C19 = Cytochrome P450 2C19 (Homo sapiens, UniProt P33261); assay: Cytochrome panel assay with activity outcomes. Panel member name: p450-cyp2c19 Compounds with AC50 equal or less than 10 uM are considered active; assay type: functional
Cytochrome P450 2C9 = Cytochrome P450 2C9 (Homo sapiens, UniProt P11712)
Cytochrome P450 1A2 = target: T2, Cytochrome P450 1A2 (Homo sapiens, UniProt P05177);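 note: PubChem cytochrome P450 panel assay, CYP1A2 panel member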
T2 sequence (P05177 whole entry): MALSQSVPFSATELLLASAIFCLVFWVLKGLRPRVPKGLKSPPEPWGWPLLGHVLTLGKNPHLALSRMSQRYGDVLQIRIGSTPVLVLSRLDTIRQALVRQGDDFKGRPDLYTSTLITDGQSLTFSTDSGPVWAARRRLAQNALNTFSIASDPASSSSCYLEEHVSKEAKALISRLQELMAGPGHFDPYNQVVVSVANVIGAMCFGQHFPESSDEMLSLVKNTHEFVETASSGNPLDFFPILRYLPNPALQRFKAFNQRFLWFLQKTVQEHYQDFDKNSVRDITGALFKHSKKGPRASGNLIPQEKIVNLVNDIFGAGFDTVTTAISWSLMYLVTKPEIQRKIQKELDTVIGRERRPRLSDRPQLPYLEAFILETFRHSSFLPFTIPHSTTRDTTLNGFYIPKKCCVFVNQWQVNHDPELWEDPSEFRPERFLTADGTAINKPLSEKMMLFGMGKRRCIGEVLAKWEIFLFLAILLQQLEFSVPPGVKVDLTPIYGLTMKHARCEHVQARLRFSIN

Cytochrome P450 3A4 = Cytochrome P450 3A4 (Homo sapiens, UniProt P08684);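 note: CYP3A4 tested as one member of a cytochrome P450 panel screen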
[2] = target: T3, RNA-binding protein pos-1 (Caenorhabditis elegans, UniProt G5EF15); assay: disruptors of C. elegans POS-1 RNA interaction – biochemical, fluorescence polarization, dose response (AID 1964);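 note: purified POS-1 fused to maltose binding protein made in E. coli; potency of compounds blocking POS-1 binding to fluorescent RNA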
T3 sequence (G5EF15 whole entry): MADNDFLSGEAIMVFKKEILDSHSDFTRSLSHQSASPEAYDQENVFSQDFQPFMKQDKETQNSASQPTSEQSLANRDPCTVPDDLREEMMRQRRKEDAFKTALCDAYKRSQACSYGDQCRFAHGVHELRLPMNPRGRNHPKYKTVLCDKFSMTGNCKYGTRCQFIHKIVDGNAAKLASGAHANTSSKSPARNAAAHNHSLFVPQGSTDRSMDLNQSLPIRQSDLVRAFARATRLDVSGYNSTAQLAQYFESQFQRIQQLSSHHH

[3] = target: T4, Zinc finger protein mex-5 (Caenorhabditis elegans, UniProt Q9XUB2); assay: potency of MEX-5 RNA-binding blockers – biochemical, C. elegans, fluorescence polarization, dose response (AID 1960)
T4 sequence (Q9XUB2 whole entry): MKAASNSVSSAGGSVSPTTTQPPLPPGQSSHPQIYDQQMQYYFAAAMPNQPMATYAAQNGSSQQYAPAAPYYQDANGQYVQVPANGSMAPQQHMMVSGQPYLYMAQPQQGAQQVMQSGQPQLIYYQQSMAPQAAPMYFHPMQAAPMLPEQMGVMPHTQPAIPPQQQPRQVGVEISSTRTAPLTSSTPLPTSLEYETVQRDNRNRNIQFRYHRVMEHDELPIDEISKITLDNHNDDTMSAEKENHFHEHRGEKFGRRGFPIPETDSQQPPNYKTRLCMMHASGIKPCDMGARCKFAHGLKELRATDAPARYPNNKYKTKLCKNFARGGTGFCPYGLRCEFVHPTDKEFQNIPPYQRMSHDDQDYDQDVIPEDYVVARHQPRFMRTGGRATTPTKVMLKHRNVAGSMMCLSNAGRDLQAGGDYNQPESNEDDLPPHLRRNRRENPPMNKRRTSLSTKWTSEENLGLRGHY

[4] = target: T5, Corticotropin-releasing factor receptor 2/Corticotropin-releasing factor-binding protein (Homo sapiens, UniProt P24387+Q13324); assay: activators of CRF receptor 2 with binding protein – uHTS hits, confirmation (AID 602473); assay type: functional; details: read-out: EC50_Mean
T5 sequence (Q13324 whole entry): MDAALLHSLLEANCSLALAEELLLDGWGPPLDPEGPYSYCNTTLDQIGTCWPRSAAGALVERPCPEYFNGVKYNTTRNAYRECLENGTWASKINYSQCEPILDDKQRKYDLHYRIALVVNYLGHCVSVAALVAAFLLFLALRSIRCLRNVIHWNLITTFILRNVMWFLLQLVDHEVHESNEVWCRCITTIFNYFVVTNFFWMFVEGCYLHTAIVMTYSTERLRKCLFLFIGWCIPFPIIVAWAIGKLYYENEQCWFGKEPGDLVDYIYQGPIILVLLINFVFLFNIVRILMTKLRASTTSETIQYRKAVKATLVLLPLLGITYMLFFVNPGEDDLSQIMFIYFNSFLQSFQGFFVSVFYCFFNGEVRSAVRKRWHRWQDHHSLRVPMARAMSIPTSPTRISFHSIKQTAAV
T5 sequence (P24387 whole entry): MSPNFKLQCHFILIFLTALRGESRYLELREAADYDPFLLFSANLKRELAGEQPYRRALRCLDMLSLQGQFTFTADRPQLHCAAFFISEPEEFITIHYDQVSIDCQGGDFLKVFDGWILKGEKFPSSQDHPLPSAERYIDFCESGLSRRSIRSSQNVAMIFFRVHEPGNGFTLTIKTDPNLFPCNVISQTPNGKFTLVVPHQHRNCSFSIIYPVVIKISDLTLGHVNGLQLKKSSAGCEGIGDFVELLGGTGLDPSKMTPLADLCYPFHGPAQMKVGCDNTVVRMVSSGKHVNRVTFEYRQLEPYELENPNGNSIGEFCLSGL

Sequence of Cytochrome P450 2C9 (P11712 whole entry): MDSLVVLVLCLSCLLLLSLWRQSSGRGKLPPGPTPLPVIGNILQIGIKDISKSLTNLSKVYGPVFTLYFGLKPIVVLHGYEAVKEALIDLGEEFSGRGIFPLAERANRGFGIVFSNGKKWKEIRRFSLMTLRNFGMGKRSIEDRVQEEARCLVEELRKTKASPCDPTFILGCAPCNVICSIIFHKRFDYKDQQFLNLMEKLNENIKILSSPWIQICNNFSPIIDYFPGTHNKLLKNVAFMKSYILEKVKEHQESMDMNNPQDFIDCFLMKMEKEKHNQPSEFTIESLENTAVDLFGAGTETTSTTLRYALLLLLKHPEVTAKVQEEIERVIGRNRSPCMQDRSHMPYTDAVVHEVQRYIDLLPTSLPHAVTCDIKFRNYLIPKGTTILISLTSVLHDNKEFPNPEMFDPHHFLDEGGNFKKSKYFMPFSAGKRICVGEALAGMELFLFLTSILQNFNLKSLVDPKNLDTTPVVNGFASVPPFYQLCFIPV
Sequence of Cytochrome P450 3A4 (P08684 whole entry, the tested form may be a part): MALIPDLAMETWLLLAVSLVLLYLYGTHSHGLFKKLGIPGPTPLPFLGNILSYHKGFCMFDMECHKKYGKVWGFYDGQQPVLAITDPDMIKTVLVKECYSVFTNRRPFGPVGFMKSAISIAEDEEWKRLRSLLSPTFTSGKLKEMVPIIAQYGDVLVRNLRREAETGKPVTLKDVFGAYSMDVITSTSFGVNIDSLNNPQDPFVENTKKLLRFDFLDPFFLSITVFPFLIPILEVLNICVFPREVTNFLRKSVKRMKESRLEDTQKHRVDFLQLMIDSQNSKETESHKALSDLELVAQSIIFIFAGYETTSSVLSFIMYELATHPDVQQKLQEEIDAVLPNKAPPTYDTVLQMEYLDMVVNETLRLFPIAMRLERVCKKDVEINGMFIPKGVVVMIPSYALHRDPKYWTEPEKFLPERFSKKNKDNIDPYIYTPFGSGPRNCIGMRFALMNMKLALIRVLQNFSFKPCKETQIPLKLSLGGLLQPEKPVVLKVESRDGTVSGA
Sequence of Cytochrome P450 2C19 (P33261 whole entry): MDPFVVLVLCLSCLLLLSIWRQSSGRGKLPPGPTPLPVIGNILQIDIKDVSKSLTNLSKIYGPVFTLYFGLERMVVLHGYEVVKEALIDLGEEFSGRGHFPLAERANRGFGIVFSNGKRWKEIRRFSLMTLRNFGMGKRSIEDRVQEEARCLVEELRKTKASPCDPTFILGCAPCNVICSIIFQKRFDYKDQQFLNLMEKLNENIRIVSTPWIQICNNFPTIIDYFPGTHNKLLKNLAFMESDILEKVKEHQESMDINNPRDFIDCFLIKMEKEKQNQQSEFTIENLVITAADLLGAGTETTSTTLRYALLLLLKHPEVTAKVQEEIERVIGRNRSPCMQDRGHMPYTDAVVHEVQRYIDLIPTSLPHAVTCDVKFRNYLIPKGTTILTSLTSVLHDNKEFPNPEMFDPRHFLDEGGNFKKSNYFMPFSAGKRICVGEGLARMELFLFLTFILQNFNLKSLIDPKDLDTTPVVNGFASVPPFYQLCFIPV

COc1ccc(/C=N/n2cncn2)cc1COc1ccc(NC(C)=O)cc1
EC50 [1]: > 260 µM (inactive)

O=C(O)CSc1nnnn1-c1ccc2c(c1)OCCO2
EC50 [1]: > 260 µM (inactive)

Cc1cc2nnc(SCC(=O)N3CCN(c4ccccc4)CC3)n2c(N)n1
AC50 (Cytochrome P450 2C19): inconclusive | AC50 (Cytochrome P450 2C9): 25.1 µM (inconclusive)

Cc1c(Cl)cccc1NC(=O)CCC(=O)NNC(=O)c1ccco1
AC50 (Cytochrome P450 2C19): inconclusive

COc1ccc(C(OCCN2CCC[C@@H](C(=O)O)C2)(c2ccc(OC)cc2)c2ccc(OC)cc2)cc1
AC50 (Cytochrome P450 1A2): 31.6 µM (inconclusive) | AC50 (Cytochrome P450 3A4): 31.6 µM (inconclusive)

O=C(NCCn1cccn1)C1CCC(=O)N(CCc2cccc(F)c2)C1 (stereo not given)
EC50 [1]: > 260 µM (inactive)

O=C1NC(=O)N(Cc2ccccc2)C(=O)/C1=C/NNC(=O)c1ccncc1
EC50 [2]: 43.9 µM (active) | EC50 [3]: 93.9 µM (active)

COc1ccc(CNC(=O)C(c2ccc(C)o2)N(C(=O)c2csnn2)c2ccc(C(C)C)cc2)cc1 (stereo not given)
EC50 [1]: 73.7 µM (active)

COc1ncc2nc(-c3cn(C)c4ccccc34)c(=O)n(C)c2n1
AC50 (Cytochrome P450 2C19): inconclusive

CCOC(=O)C1=C(C)NC(=S)NC1c1cccc(O)c1 (stereo not given) [MONASTROL]
AC50 (Cytochrome P450 1A2): 39.8 µM (inconclusive) | AC50 (Cytochrome P450 2C9): 20 µM (inconclusive)

NCCSc1nc(-c2ccccc2)c(-c2ccccc2)o1
AC50 (Cytochrome P450 1A2): 3.16 µM (inconclusive) | AC50 (Cytochrome P450 2C19; read-out: AC50): 0.00794 µM (inconclusive)

CCCCn1cnc2c(oc3nc4c(cc32)CCCC4)c1=O
EC50 [1]: > 260 µM (inactive)

CCOC(=O)Cn1nnc(-c2cccc(OC)c2)n1
EC50 [1]: > 260 µM (inactive)

C/C(CCC(=O)OC[C@@H]1O[C@H](C#Cc2ccccc2)C=C[C@@H]1Oc1ccc(C)cc1)=N/OC[C@@H](O)COCc1ccco1
AC50 (Cytochrome P450 2C9): 1.58 µM (inconclusive)

Cc1occc1C(=O)NNS(=O)(=O)c1ccc([N+](=O)[O-])cc1
EC50 [1]: > 260 µM (inactive)

CN1CCN(c2ncc3nc(-c4cn(C)c5ccccc45)c(=O)n(C)c3n2)CC1
AC50 (Cytochrome P450 1A2): 31.6 µM (inconclusive) | AC50 (Cytochrome P450 2C9): 12.6 µM (inconclusive) | AC50 (Cytochrome P450 3A4): 25.1 µM (inconclusive)

O=S(=O)(c1ccccc1)N1CCCC1c1nc2ccccc2s1 (stereo not given)
AC50 (Cytochrome P450 1A2): 25.1 µM (inconclusive) | AC50 (Cytochrome P450 3A4): 20 µM (inconclusive)

CN(C)c1ccc(/C=N/NC2=NS(=O)(=O)c3ccccc32)cc1
EC50 [2]: 39.3 µM (active) | EC50 [3]: > 300 µM (inconclusive)

Nc1nc(N)c(/N=N\c2ccc(C(=O)O)c(O)c2)c(N)n1
AC50 (Cytochrome P450 2C19; read-out: AC50): 0.631 µM (inconclusive)

Cc1cc(C)n(CCCNCC(O)c2ccccc2)n1 (stereo not given)
AC50 (Cytochrome P450 1A2): 39.8 µM (inconclusive) | AC50 (Cytochrome P450 3A4): 35.5 µM (inconclusive)

O=C(c1cccc(F)c1)N1CCC2(CCCN(Cc3ccncc3)C2)CC1
AC50 (Cytochrome P450 1A2): 15.8 µM (inconclusive) | AC50 (Cytochrome P450 3A4): 3.98 µM (inconclusive)

O=C1NC(=O)C(=Cc2ccc(-c3ccc(S(=O)(=O)N4CCOCC4)cc3)o2)C(=O)N1
EC50 [2]: 40.5 µM (active) | EC50 [3]: 34.7 µM (active)

COc1ccccc1N1CCN(C2CCCCC2NS(=O)(=O)c2ccc(Cl)cc2)CC1 (stereo not given)
EC50 [4]: 4.3 µM (active)

CCC[C@@H]1C[C@@]1(CCC)C(NC(=O)c1ccccc1)c1cccc(Cl)c1 (stereo not given in full)
AC50 (Cytochrome P450 2C9): 20 µM (inconclusive) | AC50 (Cytochrome P450 3A4): 3.98 µM (inconclusive)

CC(C)(C)c1ccc(-c2nnc(SCc3ccc(Cl)cc3)n2-c2cccc(C(F)(F)F)c2)cc1
AC50 (Cytochrome P450 1A2): 3.16 µM (inconclusive) | AC50 (Cytochrome P450 2C9): 3.16 µM (inconclusive) | AC50 (Cytochrome P450 3A4): 3.16 µM (inconclusive)

O=C(c1ccco1)N1CCc2ccccc21
EC50 [2]: > 300 µM (not active) | EC50 [3]: 169 µM (active)

O=C(c1cccs1)N1CCN(C(=O)C(c2ccccc2)c2ccccc2)CC1
AC50 (Cytochrome P450 2C19; read-out: AC50): 25.1 µM (inconclusive)

Cc1cccn2c(=O)c3cc(S(=O)(=O)c4ccccc4)c(=N)n(CC4CCCO4)c3nc12 (stereo not given)
EC50 [2]: 5.7 µM (inconclusive) | EC50 [3]: > 300 µM (inconclusive)

COc1cc(OC)c2c(c1Cl)O[C@@]1(C2=O)[C@H](C)CC(=O)C[C@@H]1OC
AC50 (Cytochrome P450 1A2): 15.8 µM (inconclusive) | AC50 (Cytochrome P450 3A4): 12.6 µM (inconclusive)

O=C(NCc1cccc(F)c1)c1cccc2c1C(=O)c1ccc(N3CCCC3)cc1S2(=O)=O
EC50 [4]: 6.84 µM (active)

COC(=O)N1CCC2(CCCN(C(=O)Nc3cccc(F)c3)C2)CC1
AC50 (Cytochrome P450 3A4): 25.1 µM (inconclusive)

COC(=O)[C@H]1C[C@@H]1[C@H](NC(=O)c1cc(C)nn1C)c1ccccc1
AC50 (Cytochrome P450 2C19; read-out: AC50): 15.8 µM (inconclusive)

CCn1c(SCC(=O)c2ccc(Cl)cc2)nnc1-c1ccoc1C
EC50 [1]: > 260 µM (inactive)

C[C@@]1(C(NC(=O)c2cccs2)c2ccc(-c3ccccc3)cc2)C[C@H]1C1CCCCC1 (stereo not given in full)
AC50 (Cytochrome P450 3A4): 20 µM (inconclusive)

CC(C)CNC(=O)C1Nc2ccc(OC(F)(F)F)cc2C2C=CCC12 (stereo not given)
EC50 [2]: > 300 µM (not active) | EC50 [3]: > 300 µM (not active)

CCc1ccc2c(-c3cccc(Cl)c3)nc(=O)n(CC)c2n1
AC50 (Cytochrome P450 2C9): 39.8 µM (inconclusive) | AC50 (Cytochrome P450 3A4): 31.6 µM (inconclusive)

CCOC(=O)c1c(/N=C/C2C(=O)NC(=S)NC2=O)sc(C)c1C
EC50 [2]: > 300 µM (not active) | EC50 [3]: > 300 µM (inconclusive)

O=C(CSc1ccc(Cl)cc1)Nc1ccc(N2CCN(C(=O)c3ccc(Cl)cc3)CC2)cc1
AC50 (Cytochrome P450 2C19; read-out: AC50): 14.1 µM (inconclusive)

Cc1ccc(S(=O)(=O)n2c(=O)oc3ccccc32)cc1
EC50 [1]: > 260 µM (inactive)

CNc1nc(Nc2ccc(C)c(Cl)c2)nc(N)c1[N+](=O)[O-]
EC50 [1]: 82.2 µM (active)

Cc1cccn2c(=O)c3c(nc12)N1CCC(Cc2ccccc2)CC1C1(C3)C(=O)N(C)C(=O)N(C)C1=O (stereo not given)
EC50 [1]: > 260 µM (inactive)

O=C(c1cc(C(F)(F)F)cc(C(F)(F)F)c1)N1CCC2(CCCN(Cc3nccs3)C2)CC1
AC50 (Cytochrome P450 2C19): inconclusive

CCOC(=O)N1CCN(CC(=O)c2ccc(O)cc2O)CC1
EC50 [2]: 157 µM (active) | EC50 [3]: 40.7 µM (active)

From ChEMBL document CHEMBL1201862, “PubChem BioAssay data set” (2004)
